# Laboratory results as given in US7084161B2, “Method for treating inflammatory diseases or conditions” (SmithKlineBeecham Corporation, priority 2000, dated 2006).
# Test system: LPS-induced INOS activity in J774 cells
# Experiment: LPS-induced iNOS activity in J774 cells (DAF-2 fluorescence)
# Assay type: cell-based, mouse
# Settings: pre-treatment 6 hours prior to and 24 hours subsequent to LPS (typically 1 ug/ml), at sub-nanomolar—nanomolar concentrations
# Description: In this assay system, lipopolysaccharide (LPS) was used to induce the expression of INOS in the mouse macrophage cell line, J774. […] This reduction in INOS activity correlated with a reduction in LPS-induced INOS mRNA expression.
# Specifically, LPS-induced INOS activity was measured using the following assay conditions. J774 cells were seeded at a density of […] per well, in a black, clear-bottomed, 96 well plate, 24 hours prior to use. The cell culture and the drug dilutions were carried out in complete media, which consisted of DMEM (Dulbecco's modification of Eagle's medium) containing foetal calf serum (10%), glutamine (2 mM), penicillin (100 u/ml) and streptomycin (100 μg/ml). The J774 cells were pre-treated with the PPAR delta activators A and B, or vehicle, for 6 hours prior to, and for 24 hours subsequent to the addition of LPS (typically, a concentration of 1 ug/ml of LPS was used). Twenty-four hours after the addition of LPS, INOS activity was measured by the following method. […] After incubation at 37° C. for 3 hours, fluorescence from each well was measured at an excitation wavelength of 485 nm, and an emission wavelength of 530 nm. The ability of LPS to induce INOS activity, in the presence and absence of PPAR delta activators, was then calculated. […]
row,SMILES,inhibition of LPS-induced INOS activity
1,"Cc1cc(SCc2sc(-c3ccc(C(F)(F)F)cc3)nc2C)ccc1OCC(=O)O [Compound A, 2-{2-methyl-4-[({4-methyl-2-[4-(trifluoromethyl)phenyl]-1,3-thiazol-5-yl}methyl)sulfanyl]phenoxy}acetic Acid]",marked inhibition
2,"Cc1cc(SCc2sc(-c3ccc(C(F)(F)F)c(F)c3)nc2C)ccc1OCC(=O)O [Compound B, 2-{2-methyl-4-[({4-methyl-2-[3-fluoro-4-(trifluoromethyl)phenyl]-1,3-thiazol-5-yl}methyl)sulfanyl]phenoxy}acetic Acid]",marked inhibition
